Reference: PMC6459903, “The enzymes OSC1 and CYP716A263 produce a high variety of triterpenoids in the latex of Taraxacum koksaghyz” (Scientific Reports, 2019)

Legend:
Assay type in all cases: cell-based
TkLUP = molecular target: T1, TkLUP (Taraxacum kok-saghyz, UniProt A0A3B1EU92); assay: transient expression in N. benthamiana leaves, GC-MS; conditions: with Tkhmgrc1; endogenous 2,3-oxidosqualene; predominant product
T1 construct: gene Lup; full-length cDNA; transient expression in Nicotiana benthamiana leaves
T1 sequence (A0A3B1EU92 1-758): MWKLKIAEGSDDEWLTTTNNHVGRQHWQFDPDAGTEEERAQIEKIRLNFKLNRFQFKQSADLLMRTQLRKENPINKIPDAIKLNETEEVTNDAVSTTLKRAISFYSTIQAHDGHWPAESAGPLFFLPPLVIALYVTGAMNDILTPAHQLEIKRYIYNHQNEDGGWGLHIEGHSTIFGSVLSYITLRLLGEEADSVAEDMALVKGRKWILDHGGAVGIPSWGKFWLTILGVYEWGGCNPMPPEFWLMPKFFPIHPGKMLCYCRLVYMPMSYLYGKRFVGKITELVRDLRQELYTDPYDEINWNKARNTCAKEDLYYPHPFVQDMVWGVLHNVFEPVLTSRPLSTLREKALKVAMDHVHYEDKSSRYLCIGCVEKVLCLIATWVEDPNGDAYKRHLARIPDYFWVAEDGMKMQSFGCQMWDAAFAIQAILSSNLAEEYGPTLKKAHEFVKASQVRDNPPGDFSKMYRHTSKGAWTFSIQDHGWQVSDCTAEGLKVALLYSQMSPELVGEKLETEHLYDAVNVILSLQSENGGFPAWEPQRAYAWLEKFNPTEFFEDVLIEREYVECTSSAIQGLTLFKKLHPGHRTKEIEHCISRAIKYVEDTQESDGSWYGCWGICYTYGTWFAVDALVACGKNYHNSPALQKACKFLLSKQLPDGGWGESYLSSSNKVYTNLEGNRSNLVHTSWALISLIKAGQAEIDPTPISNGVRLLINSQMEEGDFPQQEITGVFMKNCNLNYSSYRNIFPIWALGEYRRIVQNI

CYP716A263 = molecular target: T2, CYP716A263 (Taraxacum kok-saghyz, UniProt A0A3S5GS06); assay: co-expression in N. benthamiana leaves, GC-MS; conditions: C-3 oxidation to lupenone; lupeol formed in situ by co-expressed TkLUP with Tkhmgrc1
T2 construct: full-length 473 residues (1,422 bp), from latex cDNA; transient expression in Nicotiana benthamiana leaves with host reductase
T2 sequence (A0A3S5GS06 1-473): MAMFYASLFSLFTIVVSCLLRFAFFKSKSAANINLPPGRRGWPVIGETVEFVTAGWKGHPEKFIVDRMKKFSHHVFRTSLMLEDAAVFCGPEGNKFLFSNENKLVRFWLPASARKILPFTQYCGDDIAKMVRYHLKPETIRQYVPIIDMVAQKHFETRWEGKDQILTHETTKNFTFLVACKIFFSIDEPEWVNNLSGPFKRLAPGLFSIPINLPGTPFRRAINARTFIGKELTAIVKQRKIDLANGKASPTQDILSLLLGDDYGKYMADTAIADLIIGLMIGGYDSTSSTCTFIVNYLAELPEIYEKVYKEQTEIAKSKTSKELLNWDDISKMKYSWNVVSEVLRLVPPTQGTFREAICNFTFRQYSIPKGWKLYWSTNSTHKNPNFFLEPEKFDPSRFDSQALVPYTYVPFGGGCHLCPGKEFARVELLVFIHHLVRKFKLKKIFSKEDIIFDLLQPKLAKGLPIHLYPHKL

CYP716A263/AtR2 = molecular target: T3, CYP716A263/AtR2 (Taraxacum kok-saghyz, UniProt A0A3S5GS06); assay: co-expression in S. cerevisiae, GC-MS; conditions: C-3 oxidation to taraxasterone; taraxasterol formed in situ by co-expressed TkLUPN-TkOSC1C; AtR2 reductase
T3 construct: full-length P450, 473 residues, co-expressed with Arabidopsis thaliana reductase AtR2 in S. cerevisiae CEN.PK2-1C; with NADPH--cytochrome P450 reductase 2 (Arabidopsis thaliana)
T3 sequence (A0A3S5GS06 1-473): as above
T3 sequence (Q9SUM3 whole entry partner): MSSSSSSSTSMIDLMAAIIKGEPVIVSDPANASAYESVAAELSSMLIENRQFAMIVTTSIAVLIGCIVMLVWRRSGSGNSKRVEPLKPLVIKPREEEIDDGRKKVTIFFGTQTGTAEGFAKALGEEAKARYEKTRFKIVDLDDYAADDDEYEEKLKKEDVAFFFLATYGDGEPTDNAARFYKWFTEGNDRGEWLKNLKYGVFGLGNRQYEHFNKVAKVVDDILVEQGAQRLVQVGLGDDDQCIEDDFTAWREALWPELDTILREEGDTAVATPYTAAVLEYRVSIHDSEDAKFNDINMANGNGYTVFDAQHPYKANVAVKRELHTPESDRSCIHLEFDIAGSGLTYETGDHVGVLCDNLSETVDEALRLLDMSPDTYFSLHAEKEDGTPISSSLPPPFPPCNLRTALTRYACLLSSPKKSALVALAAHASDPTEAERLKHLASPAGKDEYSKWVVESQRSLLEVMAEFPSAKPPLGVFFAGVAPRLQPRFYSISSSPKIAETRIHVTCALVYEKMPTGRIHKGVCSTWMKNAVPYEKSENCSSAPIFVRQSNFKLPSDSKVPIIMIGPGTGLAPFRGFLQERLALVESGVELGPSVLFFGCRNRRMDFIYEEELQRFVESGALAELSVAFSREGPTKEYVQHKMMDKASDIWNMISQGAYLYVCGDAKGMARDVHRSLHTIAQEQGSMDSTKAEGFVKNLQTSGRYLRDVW

TkOSC6 = molecular target: T4, TkOSC6 (Taraxacum kok-saghyz, UniProt A0A3S7RZ84); assay: expression in S. cerevisiae, GC-MS; conditions: endogenous 2,3-oxidosqualene as substrate; erg7 repressed by CuSO4; main product
T4 construct: gene OSC6; unmodified full-length protein; expressed in S. cerevisiae CEN.PK2-1C and N. benthamiana
T4 sequence (A0A3S7RZ84 1-758): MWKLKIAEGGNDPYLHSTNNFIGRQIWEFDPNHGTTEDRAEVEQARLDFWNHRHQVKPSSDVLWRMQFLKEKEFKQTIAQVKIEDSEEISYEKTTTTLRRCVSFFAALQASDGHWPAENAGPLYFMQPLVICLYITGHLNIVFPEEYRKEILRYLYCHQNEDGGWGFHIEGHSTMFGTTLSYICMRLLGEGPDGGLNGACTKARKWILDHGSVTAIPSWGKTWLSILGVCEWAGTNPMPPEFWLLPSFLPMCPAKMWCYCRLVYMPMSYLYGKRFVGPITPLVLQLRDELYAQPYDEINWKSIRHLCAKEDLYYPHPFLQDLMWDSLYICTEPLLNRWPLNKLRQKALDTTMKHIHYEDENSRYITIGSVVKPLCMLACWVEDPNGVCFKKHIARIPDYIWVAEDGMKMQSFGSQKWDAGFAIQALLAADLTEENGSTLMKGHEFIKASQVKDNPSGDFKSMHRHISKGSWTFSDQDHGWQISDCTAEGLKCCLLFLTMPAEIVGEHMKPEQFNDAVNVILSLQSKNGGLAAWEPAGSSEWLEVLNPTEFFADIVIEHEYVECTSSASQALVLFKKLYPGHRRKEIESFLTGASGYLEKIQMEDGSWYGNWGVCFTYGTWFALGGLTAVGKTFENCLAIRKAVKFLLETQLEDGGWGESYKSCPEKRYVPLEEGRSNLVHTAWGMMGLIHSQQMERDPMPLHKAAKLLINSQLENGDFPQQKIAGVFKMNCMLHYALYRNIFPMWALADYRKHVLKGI

## C=C(C)[C@@H]1CC[C@]2(C)CC[C@]3(C)[C@H](CC[C@@H]4[C@@]5(C)CC[C@H](O)C(C)(C)[C@@H]5CC[C@]43C)[C@@H]12 [lupeol]
TkLUP
  transient expression in N. benthamiana leaves, GC-MS: TkLUP in combination with Tkhmgrc1 led to the predominant production of lupeol
CYP716A263
  co-expression in N. benthamiana leaves, GC-MS: CYP716A263 is capable of converting lupeol into lupenone and exhibits a C-3 oxidation activity

## C=C1CC[C@]2(C)CC[C@]3(C)[C@H](CC[C@@H]4[C@@]5(C)CC[C@H](O)C(C)(C)[C@@H]5CC[C@]43C)[C@H]2[C@@H]1C [taraxasterol]
CYP716A263/AtR2
  co-expression in S. cerevisiae, GC-MS: taraxasterol, as the most abundant product, was converted to taraxasterone

## CC1(C)CC[C@]2(C)CC[C@]3(C)C(=CC[C@@H]4[C@@]5(C)CC[C@H](O)C(C)(C)[C@@H]5CC[C@]43C)[C@@H]2C1 [β-amyrin]
TkOSC6
  expression in S. cerevisiae, GC-MS: TkOSC6 expression in yeast led to the identification of β-amyrin as main product
